Data from patent US20130085133A1, “ANTI-VIRAL TREATMENT AND ASSAY TO SCREENFOR ANTI-VIRAL AGENT” (Sourthern Research Institute Office of Commercialization …, priority 2010, published 2013).

What was measured:
[1] = cytotoxicity assay (percent viability of HEp-2 cells, Cell Titer-Glo); details: human, HEp-2 cells
[2] = test system: respiratory syncytial virus (RSV) strain Long; test: microbe, parasite or virus in culture; details: human respiratory syncytial virus, HEp-2, 144 h
Description: The assay measures RSV virus-induced CPE in HEp-2 cells using cell viability as the end point.
Two vials of RSV (strain Long) containing 1×10^7 pfu/mL was thawed using an Eppendorf thermomixer for 13 min at 15° C., with shaking at 350 rpm. […] The cells were incubated for 18-20 h at 37° C., 5% CO2, 90% relative humidity. The medium was aspirated and the cells washed with 10 mL PBS without Mg^2+ or Ca^2+. Cells were harvested from flasks using 0.25% trypsin-EDTA. The cells were resuspended in a freezing medium of 95% fetal calf serum and 5% DMSO to a final cell density of 2×10^6 cells/mL. One mL aliquots of this virus infected cell suspension were dispensed to cryovials and cells were rate frozen to −80° C. Frozen infected cells were then transferred to −150° C. for long term storage.
Test compounds were evaluated by measuring their antiviral activity, cell toxicity, and selectivity. Test compounds were serially diluted in a plate to plate matrix or “stacked plate” matrix. All 320 compounds in a source plate were diluted together resulting in a 10 point dose response dilution series. It was visualized as a serial dilution series proceeding vertically through a stack of plates with the high dose plate on top and the low dose plate on the bottom.
Cells were harvested and resuspended to 80,000 cells per ml in Complete DMEM/F12.
Cells were thawed in a room temperature water bath with gentle agitation. The tube was inverted 5-10. Cells were diluted to 80,000 cells per ml by adding the contents of the vial to 24 ml of cold (4° C.) media.
Twenty five ul of uninfected HEp-2 cells were plated in the cell control wells. Frozen infected cells were combined with uninfected HEp-2 cells at a 1:100 ratio. Twenty five ul of the cell mixture was added to the virus control and compound wells. All cell plating was conducted using a Matrix WellMate and cells were maintained at room temperature with stirring during the plating process. The assay plates were incubated for six days at 37° C., 5% CO2 and 90% relative humidity.
Following the six day incubation period, the assay plates were equilibrated to room temperature for 30 min and an equal volume (30 μL) of Cell Titer-Glo reagent (Promega Inc.) was added to each well using a WellMate (Matrix, Hudson, N.H.) and plates were incubated for an additional 10 min at room temperature. At the end of the incubation, luminescence was measured using a Perkin Elmer Envision™ multi-label reader (PerkinElmer, Wellesley, Mass.) with an integration time of 0.1 s.
Data was analyzed using ActivityBase software (IDBS, Inc, Guilford, UK). thirty two control wells containing cells only and twenty four wells containing cells and virus were included on each assay plate and used to calculate Z′ value for each plate and to normalize the data on a per plate basis. […] Eight ribavirin positive control wells were included on each plate for quality control purposes, but were not used in Z′ calculations. […] In the toxicity assay, results are described as percent viability and the calculation is the same.
An EC50 (for CPE inhibition) and IC50 (for cell viability) were calculated for each substance using the 4 parameter Levenburg-Marquardt algorithm with parameter A locked at 0 and parameter B locked at 100. Standard deviation, normalized chi2 and hill slope were used to evaluate the curves. Values were not extrapolated beyond the tested range of concentrations.

Row | EC50 [2] | Compound | CC50 at 6 days [1]
1 | 10.9 µg/mL | Cn1cnnc1SCC(=O)N1c2ccccc2Sc2ccc(C(F)(F)F)cc21 [AB00139215] | > 25 µg/mL
2 | 47.9 µM | Oc1ccc(O)cc1 [AB00053361] | > 50 µM
3 | 12.7 µg/mL | Cc1cc(C)n2nc(C(=O)Nc3cnn(C45CC6CC(CC(C6)C4)C5)c3)cc2n1 [AB00371387] | > 25 µg/mL
4 | 22.5 µg/mL | O=S(=O)(Nc1ccc(-c2cn3cccnc3n2)cc1)c1cc(Cl)ccc1Cl [AB00370838] | > 25 µg/mL
5 | 13.2 µg/mL | Cc1sc(NC(=O)CCc2ccccc2)c(C(=O)O)c1C [AB00304690] | > 25 µg/mL
6 | 21.9 µM | CCOC(=O)C1=C(C)NC(C)=C(C(=O)OCC)C1C(=O)OCC(=O)Nc1c(Cl)cccc1Cl [AB00712684] | > 50 µM
7 | 22.5 µg/mL | O=C(Nc1ccc2oc(-c3ccccc3Br)nc2c1)c1ccco1 [AB00294890] | > 25 µg/mL
8 | 15.2 µg/mL | Oc1cccc2ccc(N3CCOCC3)nc12 [AB00275625] | > 25 µg/mL
9 | 21 µM | O=c1[nH]c(=O)n(Cc2ccc([N+](=O)[O-])cc2)cc1F [AB00173190] | > 50 µM
10 | 41.9 µM | CC(C)(C)C1CCc2nc3ccccc3c(C(=O)OCC(=O)Nc3ccc(C#N)cc3)c2C1 (stereo not shown) [AB00721928] | > 50 µM
11 | 21.9 µg/mL | COc1ccc(-c2nc3ccccc3s2)cc1O [AB00339206] | > 25 µg/mL
12 | 22.8 µg/mL | CCCCC(=O)Nc1cccc(NC(=O)c2ccccc2OC)c1 [AB00317410] | > 25 µg/mL
13 | 22.3 µg/mL | CC(C)(C)c1ccc(C(=O)N2CCC(C(=O)Nc3ccc4c(c3)OCO4)CC2)cc1 [AB00317272] | > 25 µg/mL
14 | 15.3 µg/mL | COCCNC(=O)Nc1ccc2nc(-c3cccs3)c(-c3cccs3)nc2c1 [AB00302454] | > 25 µg/mL
15 | 24.3 µg/mL | Cc1cccc(NCc2cc(Cl)ccc2O)n1 [AB00317095] | > 25 µg/mL
16 | 13.3 µg/mL | CC1(C)Cc2c(sc(NC(=O)c3ccccc3Br)c2C(N)=O)CO1 [AB00363547] | > 25 µg/mL
17 | 11.6 µg/mL | CCOC(=O)c1ccc(NC(=O)Nc2ccccc2OC)cc1 [AB00365318] | > 25 µg/mL
18 | 12.7 µg/mL | Cc1nc(N)sc1-c1nnc(Nc2ccccc2)s1 [AB00358926] | > 25 µg/mL
19 | 43.3 µM | O=C(COC(=O)c1c2c(nc3ccccc13)/C(=C/c1cccs1)CC2)NCC(F)(F)F [AB00725240] | > 50 µM

Row | EC50 [2] | Compound | CC50 at 6 days [1]
20 | 21.4 µg/mL | CCOC(=O)c1ccc(NC(=O)NCCc2ccccc2OC)cc1 [AB00348268] | > 25 µg/mL
21 | 14.3 µg/mL | CCOc1ccccc1-c1cc(C(=O)O)c2cc(Br)ccc2n1 [AB00309817] | > 25 µg/mL
22 | 11.6 µg/mL | CCOc1nc2sc3c(c2c2ncnn12)CCCC3 [AB00372085] | > 25 µg/mL
23 | 18.8 µM | O=S(=O)(O)c1cc(/N=N/c2cc(S(=O)(=O)O)c3cccnc3c2O)ccc1CCc1ccc(/N=N/c2cc(S(=O)(=O)O)c3cccnc3c2S)cc1S(=O)(=O)O [AB00444131] | > 50 µM
24 | 11.4 µg/mL | CC1CCCCN1C(=O)c1ccc(NC(=O)c2ccccc2Cl)cc1 (stereo not shown) [AB00359707] | > 25 µg/mL
25 | 33.7 µM | CNc1ncnc2c1ncn2[C@H]1C[C@@H](CO)[C@H](O)[C@@H]1O [AB00430484] | > 50 µM
26 | 10.9 µM | O=S(=O)(O)c1cc(/N=N/c2cc(S(=O)(=O)O)c3cccnc3c2O)ccc1/C=C/c1ccc(/N=N/c2cc(S(=O)(=O)O)c3cccnc3c2O)cc1S(=O)(=O)O [AB00444372] | > 50 µM
27 | 24.7 µM | O=C(CCNC(=O)c1ccc(Br)cc1)NC1CCCc2ccccc21 (stereo not shown) [AB00739576] | > 50 µM
28 | 29.8 µM | Cc1ccc(O)c(C(=O)c2cc(C(=O)Nc3ccccc3C)c(=O)n(-c3ccccc3C)c2)c1 [AB00719359] | > 50 µM
29 | 6.07 µM | COc1cccc(Nc2nnc(SCC(=O)/C(C#N)=C(\C)N)s2)c1 [AB00767910] | > 50 µM
30 | 21.1 µg/mL | COc1ccccc1C(=O)N(CCCCN1C(=O)c2ccccc2C1=O)c1ccc(Cl)cc1 [AB00301352] | > 25 µg/mL
31 | 16.4 µg/mL | Cc1ccc(-c2nc3cc(N)ccc3o2)cc1Br [AB00076694] | > 25 µg/mL
32 | 15 µg/mL | CCC(C)N(C(=O)c1cc(Cl)ccc1OC)C(C)CC (stereo not shown) [AB00310767] | > 25 µg/mL
33 | 21 µg/mL | C=CCN(CC=C)C(=O)c1ccc(OC)c(I)c1 [AB00362750] | > 25 µg/mL
34 | 18.7 µg/mL | CNc1cc(N2CCCC2)ccc1[N+](=O)[O-] [AB00322577] | > 25 µg/mL
35 | 18.6 µg/mL | Cc1cc(C)cc(NC(=O)c2cccc(NC(=O)c3ccco3)c2)c1 [AB00293678] | > 25 µg/mL
36 | 15.1 µM | NCc1cn2ccccc2n1 [AB00877180] | > 50 µM
37 | 23.6 µg/mL | CCC(=O)Nc1ccc(-c2csc(N)n2)cc1 [AB00310808] | > 25 µg/mL

The remaining lines, values behind:

Row | Compound | EC50 [2] | CC50 at 6 days [1]
38 | Cc1ccc(-c2csc3nc[nH]c(=O)c23)cc1C [AB00297372] | 10.9 µg/mL | > 25 µg/mL
39 | CCC(Oc1ccc(-c2ccc(C)cc2)cc1)C(=O)OC (stereo not shown) [AB00298660] | 13.5 µg/mL | > 25 µg/mL
40 | COc1ccc(C(=O)N2CCC(C(=O)Nc3cccc(Br)c3)CC2)cc1 [AB00299547] | 18.1 µg/mL | > 25 µg/mL
41 | COC(=O)c1ccc(NC(=O)c2ccc(C)c(Br)c2)cc1 [AB00302921] | 20.3 µg/mL | > 25 µg/mL
42 | O=c1[nH]cnc2sc3c(c12)CCCCC3 [AB00276706] | 19.6 µg/mL | > 25 µg/mL
43 | Cn1c(SC/C=C/c2ccccc2)nnc1-c1cccs1 [AB00318335] | 24.2 µg/mL | > 25 µg/mL
44 | CCc1c(C)sc(NC(=O)c2ccc(C)o2)c1C(N)=O [AB00313012] | 18 µg/mL | > 25 µg/mL
45 | COc1cc(SC)ccc1C(=O)Nc1ccc(C(=O)NC2CC2)cc1 [AB00797753] | 29.9 µM | > 50 µM
46 | CC(C)CCCC(C)C1CC[C@@H]2[C@@H]3CC[C@@H]4CC(CCC=C(c5cc(Cl)c(O)c(C(=O)O)c5)c5cc(Cl)c(O)c(C(=O)O)c5)CC[C@]4(C)[C@@H]3CC[C@]12C (stereo partly shown) [AB00443953] | 21.3 µM | > 50 µM
47 | O=C1c2ccccc2C(=O)N1CCc1nc2ccccc2c(=O)n1-c1cc(Cl)ccc1Cl [AB00307079] | 14.3 µg/mL | > 25 µg/mL
48 | O=C(c1ccc(Cl)cc1Cl)N1CCCN(C(=O)c2ccc(Cl)cc2Cl)CC1 [AB00309842] | 12.3 µg/mL | > 25 µg/mL
49 | COc1ccc2cc(Br)ccc2c1CO [AB00309550] | 16.3 µg/mL | > 25 µg/mL
50 | Cc1ccc(C(=O)Nc2ccc(OC(C)C)cc2)cc1C [AB00297482] | 14.1 µg/mL | > 25 µg/mL
51 | Cc1cc(C)n(-c2ccc(C(=O)Nc3cc(Cl)ccc3C)cc2)n1 [AB00712667] | 24 µM | > 50 µM
52 | O=C(O)c1ccc(NC(=S)NC(=O)c2ccc(-c3ccc(Br)cc3)o2)cc1 [AB00301183] | 22.6 µg/mL | > 25 µg/mL
53 | O=C(N1CCCC1)N1c2ccccc2CCc2ccccc21 [AB00276381] | 12.2 µg/mL | > 25 µg/mL
54 | CCOc1cc(C2CC(=O)Nc3c2ccc2ccccc32)cc(Cl)c1O (stereo not shown) [AB00317685] | 20.9 µg/mL | > 25 µg/mL
55 | N#Cc1c(Cl)nc(N)c(N)c1C(F)(F)F [AB00430151] | 38.4 µM | > 50 µM

Row | Compound | EC50 [2] | CC50 at 6 days [1]
56 | Cc1ccc(-c2csc(NC(=O)COC(=O)c3cccc(Cl)c3)n2)cc1C [AB00720414] | 49.1 µM | > 50 µM
57 | CCC(=O)Nc1ccc(C(=O)OCc2cccc(F)c2)cc1 [AB00363859] | 12.6 µg/mL | > 25 µg/mL
58 | O=C1c2ccccc2C(=O)N1CCCCN(C(=O)c1ccccc1[N+](=O)[O-])c1ccc(Cl)cc1 [AB00301378] | 17.8 µg/mL | > 25 µg/mL
59 | O=C(CCc1ccccc1)Nc1sc2c(c1C(=O)O)CCC2 [AB00877405] | 27.8 µM | > 50 µM
60 | C/C(N)=C(/C#N)C(=O)COC(=O)c1ccccc1SCC(=O)NC1CCCCCCC1 [AB00723775] | 23.4 µM | > 50 µM
61 | CCOc1ccc(NC(=O)CSC2=C(C#N)C(c3ccncc3)C(C(=O)Nc3ccccc3)=C(C)N2)cc1 (stereo not shown) [AB00292155] | 15.7 µg/mL | > 25 µg/mL
62 | Cc1ccc(N(CCCCN2C(=O)c3ccccc3C2=O)C(=O)c2cccc(C)c2)cc1 [AB00302020] | 15.1 µg/mL | > 25 µg/mL
63 | COc1ccc(-c2ccc(-c3noc(-c4ccco4)n3)c(OC)n2)cc1 [AB00353001] | 18.4 µg/mL | > 25 µg/mL
64 | O=C(Nc1c(F)cc(F)cc1Br)c1ccc(Cl)s1 [AB00366410] | 20.2 µg/mL | > 25 µg/mL
65 | C=CCNc1cc(N2CCN(C(=O)c3ccc(C)cc3)CC2)ccc1[N+](=O)[O-] [AB00319534] | 13.8 µg/mL | > 25 µg/mL
66 | C=CC/N=c1\scc(-c2ccc(C)cc2)n1/N=C/c1ccccn1 [AB00718339] | 1.14 µM | > 50 µM
67 | OCc1cccc2c(Br)cccc12 [AB00375379] | 39.2 µM | > 50 µM
68 | CC(=O)Nc1ccc(S(=O)(=O)N(C)CC(=O)Nc2ccccc2Oc2ccccc2)cc1 [AB00798716] | 49.8 µM | > 50 µM
69 | COC(=O)c1c(-c2ccccc2)csc1NC(=O)c1c(-c2ccccc2)noc1C [AB00310910] | 1.15 µg/mL | > 25 µg/mL
70 | CCOc1ccc(-c2nnc(Nc3ccc(OC)c(C(=O)NC)c3)c3ccccc23)cc1 [AB00317165] | 19.5 µg/mL | > 25 µg/mL
71 | Cc1cccc(C)c1NC(=O)c1cccc(C(=O)Nc2c(C)cccc2C)n1 [AB00313091] | 19.5 µg/mL | > 25 µg/mL
72 | C/C(N)=C(/C#N)C(=O)CSc1nnc2c(Cl)cc(C(F)(F)F)cn12 [AB00724801] | 16.2 µM | > 50 µM
73 | COc1ccc(-c2cn3cccnc3n2)cc1 [AB00288908] | 21.6 µg/mL | –
